Laboratory results: patent US20020164581A1 (priority 2001, published 2002)
Where two headings read alike, the source gives them in different places.

How the values were obtained:
[1] = system: bovine aortic endothelial cells (bAECs); details: for protection against paraquat-mediated cytotoxicity, SERM alone: 10 nM-1 μM, 24 h pretreatment (FIG. 4)
Experimental: Primary cultures of bAECs were established from five female beef cattle (ranging in age from 1 to 2 years old) according to the method of Fenselau and Mello (Cancer Res. 36:3269-3273, 1976). Pooled cells were routinely maintained under humidified air (5% CO2) at 37° C. in Dulbecco's modified medium supplemented with 10% fetal bovine serum (FBS). Cells from the second to the fifth passages were used in these studies.
In the studies in which male and female bAECs were compared, batches of bAECs were independently established from 5 female and 4 male beef cattle (ranging in age from 1 to 2 years old) according to the method of Fenselau and Mello (Cancer Res. 36:3269-3273, 1976). Otherwise, the cells were treated and assessed as described in the paragraph above.
Prior to E2 pretreatment, cells were grown in phenol red-free DMEM supplemented with 10% dextran/charcoal-stripped FBS for at least 1 passage (3-4 days). Phenol red-free Dulbecco's modified medium was used to avoid potential estrogenic interference. Serum steroid deprivation was conducted according to the conditions described by Yeh et al. (Proc. Natl. Acad. Sci. USA 95:5527-5532, 1998). The E2 level in the stripped serum was assayed using an [^125I] 17β-estradiol radioimmunoassay kit (TKE21, Diagnostic Products Corporation, Los Angeles, Calif.). […] The cells grown in E2-free environments were plated onto Falcon 24-well Primariae™ plates at a density of 5×10^4 cells/well. E2 in dimethylsulfoxide (DMSO) was added to each well at final concentrations ranging from 1 nM to 10 μM 3 hours after plating, and the cells were then incubated for 24 hours (a duration commonly used for the studies of the genomic effects of E2) at 37° C. Control cells were treated with a corresponding amount of DMSO (a final concentration 0.05%).
Prior to oxidative challenge, E2-containing media was removed, and the cells were rinsed with PBS twice and re-fed with serum-free fresh medium. Subsequently, paraquat was added to the cells at the indicated doses (0.1-2.0 mM) for 3 hours. The oxidative challenge was terminated by aspiration of the oxidant-containing medium and quickly rinsing the cells twice with PBS. The cells were allowed to recover for 48 hours in medium supplemented with 10% regular FBS to exclude the possibility that different concentrations of E2 interfere with the cellular recovery processes.
Cell survival after oxidative challenge was assessed with a 3-(4,5-dimethylthiazol-2-yl) 2,5 diphenyltetrazolium bromide (MTT) assay in which the mitochondrial dehydrogenase activity of viable cells reduces MTT to a blue formazan product (Carmichael et al. Cancer Res. 47:936-942, 1987). Our prior conditions were employed (Si et al., Endocrine in press, 2001). Briefly, cells were treated with 1/10 volume of MTT solution (5 mg/ml in PBS) and incubated at 37° C. for 2 hours. The supernatant was then removed, and 600 μl of lysis buffer (50% dimethyl formamide, 5% sodium dodecyl sulphate, 0.35 M acetic acid, 50 mM HCl) was added to each well. Following cell lysis, the absorbency was measured at 570 nm and used as an indicator of relative cell survival. The surviving fraction was calculated as compared to the cells without paraquat challenge.
Two experimental groups were created. In the first group, E2 was added only during the 24-hour pretreatment period. In the second group, E2 was added only during the 3-hour paraquat exposure.

[2] = system: estrogen receptor; details: cited from earlier work
[3] = system: LDL; details: 5-50 μM; oxidation by copper ions, monocytes, or endothelial cells; cited from earlier work
[4] = system: antioxidant enzymes (SOD, CAT, GPX, GR) in bAECs; test: Antioxidant enzyme (AOE) activities in cell lysates, all four enzymes together; format: cell-based, bovine; details: for AOE change, SERM alone: pretreatment with 1 μM alone
Experimental: […] The cells were then lysed on ice by sonication at a setting of 50 mW, with 3×15 set cycles using a Cole-Parmer Ultrasonic Homogenizer (Chicago, Ill.). Protein concentrations in the samples were determined by the Bradford method with bovine serum albumin as a standard (Bradford, Anal. Biochem. 72:248-254, 1976).
SOD activity was determined by a method based on the ability of SOD to suppress epinephrine auto-oxidation (Misra and Fridovich, J.Biol. Chem. 247:3170-3175, 1972). One unit of SOD activity is defined as the amount of protein that inhibits the oxidation of epinephrine by 50%. Briefly, 100 μl of 10×-diluted cell homogenate (about 10 μg protein) was added to 900 μl of carbonate buffer (0.1 M NaHCO3, 0.1 M Na2CO3, 0.1 mM EDTA, pH 10.2) containing 0.7 mM of epinephrine. The absorbency of the mixture was measured for 4 minutes at 480 nm using a Hitachi U-2000 spectrophotometer (Hitachi, San Jose, Calif.).
CAT activity was determined by the method of Aebi (Methods Enzymol. 105:121,-126, 1984). One unit of CAT activity is defined as the amount of protein that degrades 1 μmole of H2O2 per minute. Initially, 10 μl of absolute ethanol was mixed with 100 μl of cell homogenates and pre-incubated at 4° C. for 30 minutes. Following the addition of 10 μl Triton X-100 (reduced form), a 100 μl aliquot (about 100 μg of protein) of the resultant mixture was next added to 500 μl of hydrogen peroxide (66 mM) and 400 μl of phosphate buffer (0.1 M NaH2PO4, 0.1 M Na2HPO4, 0.1 mM EDTA, pH 7.0). The absorbency of the mixture was monitored for one minute at 240 nm spectrophotometrically. The molar extinction coefficient of 43.6 M/cm was used to determine the catalase activity.
GPX activity was determined by a modified method of Flohe and Gunzler (Methods Enzymol. 105:114-121, 1984). One unit of GPX activity is defined as the amount of protein that oxidizes 1 nmole of β-NADPH per minute. In this assay, 100 μl of cell homogenate (about 100 μg protein) was added to 800 μl of phosphate buffer (0.1 M NaH2PO4, 0.1 M Na2HPO4, 0.1 mM EDTA, pH 7.0) containing 12.5 mM glutathione (reduced form, GSH), 0.2 mM β-nicotinamide adenine dinucleotide phosphate (reduced form, β-NADPH), and 0.34 U glutathione reductase. This mixture was pre-incubated at 37 C for 10 minutes and then 100 μl of 12 mM t-butyl hydroperoxide was added. The absorbency of the mixture was determined at 340 nm for 3 minutes. The molar extinction coefficient of 6.22 mM/cm was used to determine the activity of GPX.
GR activity was determined by a modified method of Carlberg and Mannervik (Methods Enzymol. 11 3:484-490, 1985). One unit of GR activity is defined as the amount of protein that oxidizes 1 nmole of β-NADPH per minute. Briefly, 50 μl of 2 mM β-NADPH in 10 mM Tris buffer (pH 7.0) was added to a cuvette containing 50 μl of 20 mM glutathione (oxidized ofrm, GSSG) in phosphate buffer (0.1 M NaH2PO4, 0.1 M Na2HPO4, 0.1 mM EDTA, pH 7.0) and 800 μl of phosphate buffer. Following the addition of cell homogenate (about 100 μg protein/100 μl) the final mixture was measured at 340 nm for 3 minutes. The molar extinction coefficient of 6.22 mM/cm was used to determine the activity of […].

[5] = system: endothelial nitric oxide synthase; details: endothelial cells; cited from earlier work
[6] = system: cardiomyocytes; details: cited from earlier work

## CC/C(=C(/CC)c1ccc(O)cc1)c1ccc(O)cc1 [diethylstilbestrol]
[1]
  protection against subsequent oxidative challenge: acquired significant protection against subsequent oxidative challenge

## CCCCN(C)C(=O)CCCCCCCCCC[C@@H]1Cc2cc(O)ccc2[C@H]2CC[C@]3(C)[C@@H](O)CC[C@H]3[C@H]12 [ICI164384]
[2]
  effect on the beneficial effect of E2: reverses the beneficial effect of E2

## C[C@]12CC[C@@H]3c4ccc(O)cc4CC[C@H]3[C@@H]1C[C@@H](O)[C@@H]2O [estriol]
[3]
  effect on LDL oxidation: inhibit LDL oxidation

## C[C@@H]1C[C@@H]([C@H](O)CC2CC(=O)NC(=O)C2)C(=O)[C@@H](C)C1 [cyclohexamide]
[4]; included during the E2 pretreatment period
  effect on AOE induction by E2: abolished

## C[C@]12CC[C@H]3[C@@H](CCC4=CC(=O)CC[C@@]43C)[C@@H]1CC[C@@H]2O [testosterone]
[3]
  effect on LDL oxidation: has no effect

## CC/C(=C(\c1ccccc1)c1ccc(OCCN(C)C)cc1)c1ccccc1 [tamoxifen]
[5]
  effect on E2's induction of nitric oxide synthase: interferes with E2's ability to induce nitric oxide synthase
[6]
  effect on E2's protection in cardiomyocytes: abolishes this protective effect

## O=C(c1ccc(OCCN2CCCCC2)cc1)c1c(-c2ccc(O)cc2)sc2cc(O)ccc12 [Ral, raloxifene]
[4]
  AOE change, SERM alone: no detectable change in AOE
[1]
  protection against subsequent oxidative challenge: neither positively nor negatively influenced oxidative resistance
  protection against paraquat-mediated cytotoxicity, SERM alone: failed to confer detectable protection
[1]; 1 μM (highest tested dose) added with 1 nM E2 during pretreatment
  effect on E2-induced oxidative protection: only a slight inhibitory effect on E2 protection
[1]; 1-100 nM added with 1 nM E2 during pretreatment
  effect on E2-induced oxidative protection: did not affect E2-induced oxidative protection

## C[n+]1ccc(-c2cc[n+](C)cc2)cc1.[Cl-].[Cl-] [paraquat, 1,1′-dimethyl-4,4′-bipyridinium dichloride]
[1]; exposure of bAECs 3 h at 37 C
  cell killing by paraquat: dose-dependent cell killing
[1]; male and female bAECs (both genders)
  LD50 of paraquat: 0.1 to 1.0 mM
[1]; untreated control cells (no E2)
  LD50 of paraquat toxicity: about 0.5 mM

## 4-hydroxytamoxifen [4-OH-Tam]
[4]; 1 μM SERM included during 1 nM E2 pretreatment (FIG. 6)
  effect on E2's capability to evoke AOE activities: significantly decreased estrogen's capability to evoke AOE activities
[4]
  AOE change, SERM alone: no detectable change in AOE
[1]
  protection against subsequent oxidative challenge: neither positively nor negatively influenced oxidative resistance
  protection against paraquat-mediated cytotoxicity, SERM alone: failed to confer detectable protection
[1]; 10 nM-1 μM added simultaneously with 1 nM E2 during pretreatment
  effect on E2-induced oxidative protection: significantly blocked estrogen-induced oxidative protection
[1]; co-treatment with 1 nM E2, endothelial cells
  minimal dose to suppress E2 protection: 10 nM

## COc1ccc2c(c1)CCC(c1ccccc1)=C2c1ccc(OCCN2CCCC2)cc1 [nafoxidine]
[1]
  protection against subsequent oxidative challenge: neither positively nor negatively influenced oxidative resistance
